Assay results published in patent publication US20250041279A1, “THERAPEUTIC MEDICINE FOR HEART DISEASE OR SKELETAL MUSCLE DISEASE” (SHIONOGI & CO., LTD., priority 2021, published 2025).
One block for each compound: values may come before it.

Experiments:
Crl:CD (SD) rats = assay: Influence on platelet count in SD rats; assay type: in vivo; settings: for Platelet count: mean ± standard deviation; for effect on platelet count: within the dose range used for evaluation
Experimental: The compound of the present invention was suspended in a 0.5% methylcellulose solution so as to have a dose of 50 to 600 mg/kg/day, and was orally repeatedly administered for 4 days to 6-week-old male Crl:CD (SD) rats under non-fasted conditions. On day 5 from the start of administration, blood was collected from the abdominal vena cava under anesthesia, and […]. A platelet count in plasma was evaluated with an automatic hemocytometer.

C57BL/6JJcl mice = assay: Plasma triglyceride concentration in mice fed ultra-high fat, choline-deficient, methionine-lowered diet; assay type: in vivo; settings: for Plasma triglyceride concentration: bid, mean ± standard error; for plasma triglyceride concentration versus vehicle-administered group: mice fed ultra-high fat, choline-deficient, methionine-lowered diet, repeated oral b.i.d.
Experimental: Six-week-old male C57BL/6JJcl mice were fed an ultra-high fat, choline-deficient, methionine-lowered diet (60 kcal % fat content, using lard, choline-deficient, methionine-lowered (0.1%)), and at the same time, the compound of the present invention was suspended in a vehicle (0.5% methylcellulose aqueous solution) so as to have a dose of 3 to 45 mg/kg/10 mL, and orally repeatedly administered (b.i.d.) for 8 weeks. Blood was collected from the tail vein during the repeated administration period, and biochemical parameters in plasma were measured.

Atgl knockout mice = assay: Long-chain fatty acid metabolizing ability in Atgl knockout mouse myocardium (BMIPP SPECT/CT wash out rate); assay type: in vivo
Experimental: Atgl (adipose-triglyceride lipase) knockout mice are known as non clinical models of TGCV. Atgl knockout mice (KO mice) deficient in the Atgl gene were each produced by a known method.
The compound of the present invention was suspended in a 0.5% HPMC aqueous solution so that the dose of the same was 30 or 45 mg/kg/10 mL, and orally administered to 6 to 7-week-old male Atgl knockout mice on the day before and the day when the long chain fatty acid metabolizing ability was measured. On the day of measurement of long-chain fatty acid metabolizing ability, 14.6 MBq/mouse of iodine-123-8 methyl iodophenyl-pen-tadecanoic acid (BMIPP) was administered via the tail vein. At 1 hour and 4 hours after administration, the mice were imaged by single-photon emission computed tomography (SPECT)/CT under anesthesia, and the radioactivity of the administered BMIPP in the myocardium was measured. The metabolism of long-chain fatty acids in the myocardium was calculated as a wash out rate by the following formula.

[1] = Metabolic stability test, rat; assay type: in vitro ADME; settings: 30 minutes
recombinant human ACC2 = recombinant human ACC2 (Homo sapiens (Human), UniProt O00763); assay: Measurement of inhibitory activity of human ACC2 (MALDI-TOF MS); assay type: biochemical; settings: read-out: IC50 hACC2
Sequence of recombinant human ACC2 (O00763 27-2458): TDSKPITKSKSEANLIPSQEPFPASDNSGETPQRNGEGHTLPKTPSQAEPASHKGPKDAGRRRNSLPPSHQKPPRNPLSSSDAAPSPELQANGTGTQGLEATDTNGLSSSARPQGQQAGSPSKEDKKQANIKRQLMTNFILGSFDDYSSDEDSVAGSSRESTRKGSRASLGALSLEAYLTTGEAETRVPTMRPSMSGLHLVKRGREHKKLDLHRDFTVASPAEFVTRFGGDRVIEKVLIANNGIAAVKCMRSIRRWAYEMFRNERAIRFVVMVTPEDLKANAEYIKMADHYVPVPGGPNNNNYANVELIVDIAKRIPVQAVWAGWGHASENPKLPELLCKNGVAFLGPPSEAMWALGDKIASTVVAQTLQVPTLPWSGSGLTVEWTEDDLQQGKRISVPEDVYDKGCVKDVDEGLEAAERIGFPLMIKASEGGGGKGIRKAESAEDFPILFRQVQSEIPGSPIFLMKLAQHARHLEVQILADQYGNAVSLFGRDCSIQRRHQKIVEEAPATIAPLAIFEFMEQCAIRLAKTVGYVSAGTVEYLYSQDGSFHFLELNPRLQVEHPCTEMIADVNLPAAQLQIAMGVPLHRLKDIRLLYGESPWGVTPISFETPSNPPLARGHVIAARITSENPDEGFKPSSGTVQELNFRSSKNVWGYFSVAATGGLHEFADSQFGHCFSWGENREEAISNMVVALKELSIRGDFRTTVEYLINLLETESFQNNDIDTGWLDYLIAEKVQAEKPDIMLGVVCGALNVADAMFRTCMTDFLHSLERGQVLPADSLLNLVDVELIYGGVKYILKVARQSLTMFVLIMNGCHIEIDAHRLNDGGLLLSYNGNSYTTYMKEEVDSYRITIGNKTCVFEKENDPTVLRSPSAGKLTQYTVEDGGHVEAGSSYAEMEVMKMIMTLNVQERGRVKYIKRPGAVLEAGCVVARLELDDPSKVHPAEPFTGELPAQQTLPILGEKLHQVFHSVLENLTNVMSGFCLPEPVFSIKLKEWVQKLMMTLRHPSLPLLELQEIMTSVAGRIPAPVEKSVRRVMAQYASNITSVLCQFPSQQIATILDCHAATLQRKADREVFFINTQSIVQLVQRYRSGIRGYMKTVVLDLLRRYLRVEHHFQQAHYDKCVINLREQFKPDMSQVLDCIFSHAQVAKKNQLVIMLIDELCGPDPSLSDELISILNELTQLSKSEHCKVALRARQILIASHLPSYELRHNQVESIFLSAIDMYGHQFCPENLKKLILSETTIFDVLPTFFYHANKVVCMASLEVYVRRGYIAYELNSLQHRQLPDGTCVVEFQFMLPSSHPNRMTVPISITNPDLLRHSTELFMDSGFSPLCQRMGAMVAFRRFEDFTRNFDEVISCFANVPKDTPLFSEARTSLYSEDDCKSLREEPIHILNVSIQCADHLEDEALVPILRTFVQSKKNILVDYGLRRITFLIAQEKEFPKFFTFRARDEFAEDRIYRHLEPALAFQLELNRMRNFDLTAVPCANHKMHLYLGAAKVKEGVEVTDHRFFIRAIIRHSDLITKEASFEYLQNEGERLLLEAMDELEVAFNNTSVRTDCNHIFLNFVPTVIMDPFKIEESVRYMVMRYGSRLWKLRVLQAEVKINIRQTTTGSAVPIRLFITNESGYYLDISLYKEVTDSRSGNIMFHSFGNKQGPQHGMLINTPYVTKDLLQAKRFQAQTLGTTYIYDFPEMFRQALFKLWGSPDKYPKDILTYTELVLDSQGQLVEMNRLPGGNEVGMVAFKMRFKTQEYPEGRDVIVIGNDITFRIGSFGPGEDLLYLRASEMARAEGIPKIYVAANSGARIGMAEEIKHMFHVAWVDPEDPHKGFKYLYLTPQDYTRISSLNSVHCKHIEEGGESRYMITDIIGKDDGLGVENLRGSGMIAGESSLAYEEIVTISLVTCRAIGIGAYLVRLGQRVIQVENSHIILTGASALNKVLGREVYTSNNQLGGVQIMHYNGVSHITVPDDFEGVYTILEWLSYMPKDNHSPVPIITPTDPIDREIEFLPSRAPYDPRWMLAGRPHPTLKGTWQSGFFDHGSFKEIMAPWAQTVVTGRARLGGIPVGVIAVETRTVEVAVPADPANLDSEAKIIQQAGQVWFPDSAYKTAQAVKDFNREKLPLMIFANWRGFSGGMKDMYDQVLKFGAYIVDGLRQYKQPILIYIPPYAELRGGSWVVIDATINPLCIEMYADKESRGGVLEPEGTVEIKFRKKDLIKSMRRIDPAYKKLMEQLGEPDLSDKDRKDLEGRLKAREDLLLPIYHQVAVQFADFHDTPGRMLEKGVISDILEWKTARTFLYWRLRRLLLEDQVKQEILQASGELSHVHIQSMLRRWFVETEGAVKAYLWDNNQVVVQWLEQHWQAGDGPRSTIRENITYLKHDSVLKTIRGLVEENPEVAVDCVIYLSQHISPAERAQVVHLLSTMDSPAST
Text: A cDNA encoding human ACC2 protein (27 amino acid residues to 2458 amino acid residues from the N-terminus) was cloned from a human kidney cDNA library (Clontech Laboratories, Inc.), a His-tag sequence was introduced at the 5′ end, and then inserted into pFastBac1 (Invitrogen). A recombinant baculovirus was produced in accordance with the protocol for a Bac-to-Bac baculovirus expression system (Invitrogen), and Sf-9 cells were infected therewith to express human ACC2 protein. The recovered cells were crushed, filtered through a filter, and then subjected to Ni affinity chromatography and anion exchange chromatography. Fractions containing human ACC2 protein were collected to obtain recombinant human ACC2.
The recombinant human ACC1 and the recombinant human ACC2 obtained from the above Preparation Examples were preincubated in an assay buffer (50 mM HEPES-KOH (pH 7.4), 10 mM magnesium chloride, 6 to 10 mM potassium citrate, 4 mM glutathione reduced form, and 1.5 mg/ml bovine serum albumin) for 1 hour. […] Deprotonated ions of the substrate acetyl-CoA (AcCoA) and the reaction product malonyl-CoA (MalCoA) were detected, and the intensity of each signal was used to calculate a conversion rate to malonyl-CoA or succinyl-CoA, i.e., intensity of [MalCoA-H]—/(intensity of [MalCoA-H]-+intensity of [AcCoA.H].). […] The potassium citrate concentration in the assay buffer, the potassium bicarbonate concentration in the substrate solution, and the incubation time were adjusted within the above concentrations or reaction times for each lot of the enzyme to be used.

[2] = Metabolic stability test, human liver microsomes; assay type: in vitro ADME; settings: 37° C., 30 minutes, NADPH
Experimental: Commercially available pooled human liver microsomes were reacted with the compound of the present invention for a given time. A residual rate was calculated by comparison between the reacted sample and the unreacted sample to evaluate a degree at which the compound of the present invention is metabolized in the liver.
The compound was reacted at 37° C. for 0 minutes or 30 minutes in the presence of 1 mmol/L NADPH in 0.2 mL of a buffer (50 mmol/L Tris-HCl pH 7.4, 150 mmol/L potassium chloride, and 10 mmol/L magnesium chloride) containing 0.5 mg protein/mL of the human liver microsomes (oxidative reaction). After the reaction, 50 μL of the reaction solution was added to 100 μL of a solution of methanol/acetonitrile=1/1 (v/v) and mixed, and the mixture was centrifuged at 3000 rpm for 15 minutes. The compound of the present invention in the centrifuged supernatant was quantified by LC/MS/MS or solid-phase extraction (SPE)/MS. The amount of the compound of the present invention remained after the reaction was calculated with the amount of the compound at 0 minutes of the reaction defined as 100%.

Platelet count (Crl:CD (SD) rats; 100 mg/kg/day oral for 4 days): 987 ± 86 | Platelet count (Crl:CD (SD) rats; 300 mg/kg/day oral for 4 days): 988 ± 43 | Platelet count (Crl:CD (SD) rats; 600 mg/kg/day oral for 4 days): 1061 ± 85 | effect on platelet count (Crl:CD (SD) rats): did not affect | Plasma triglyceride concentration (C57BL/6JJcl mice; 3 mg/kg, 2 weeks): 32.9 ± 1.3 mg/dL | Plasma triglyceride concentration (C57BL/6JJcl mice; 3 mg/kg, 4 weeks): 22.4 ± 2.1 mg/dL | Plasma triglyceride concentration (C57BL/6JJcl mice; 3 mg/kg, 7 weeks): 27.2 ± 1.5 mg/dL | Plasma triglyceride concentration (C57BL/6JJcl mice; 10 mg/kg, 2 weeks): 30.4 ± 2.2 mg/dL | Plasma triglyceride concentration (C57BL/6JJcl mice; 10 mg/kg, 4 weeks): 21.5 ± 1.8 mg/dL | Plasma triglyceride concentration (C57BL/6JJcl mice; 10 mg/kg, 7 weeks): 22.1 ± 1.9 mg/dL | Plasma triglyceride concentration (C57BL/6JJcl mice; 30 mg/kg, 2 weeks): 23.1 ± 2.5 mg/dL | Plasma triglyceride concentration (C57BL/6JJcl mice; 30 mg/kg, 4 weeks): 11.1 ± 1.1 mg/dL | Plasma triglyceride concentration (C57BL/6JJcl mice; 30 mg/kg, 7 weeks): 16.2 ± 1.6 mg/dL | Remaining amount of compound, Rat [1]: 85.5% | IC50 (recombinant human ACC2): 5.6 nM | Remaining amount of compound, Human [2]: 83.3%
SMILES: C[C@@H](COC1CCC(Oc2nc3c(F)cc(OC4CC4)cc3n2C)CC1)NC(N)=O (stereo partly shown) [Compound I-12]
plasma triglyceride concentration versus vehicle-administered group (C57BL/6JJcl mice): lower than that in the vehicle-administered group | long chain fatty acid metabolizing ability in myocardium (wash out rate) (Atgl knockout mice; 30 mg/kg/10 mL oral, p=0.096, Welch's t test): tended to improve

Platelet count (Crl:CD (SD) rats; 50 mg/kg/day oral for 4 days): 1079 ± 73 | Platelet count (Crl:CD (SD) rats; 100 mg/kg/day oral for 4 days): 1048 ± 65 | Platelet count (Crl:CD (SD) rats; 200 mg/kg/day oral for 4 days): 1122 ± 87 | effect on platelet count (Crl:CD (SD) rats): did not affect | Plasma triglyceride concentration (C57BL/6JJcl mice; 15 mg/kg, 0 weeks): 61.6 ± 3.1 mg/dL | Plasma triglyceride concentration (C57BL/6JJcl mice; 15 mg/kg, 1 week): 23.7 ± 1.0 mg/dL | Plasma triglyceride concentration (C57BL/6JJcl mice; 15 mg/kg, 3 weeks): 19.8 ± 1.2 mg/dL | Plasma triglyceride concentration (C57BL/6JJcl mice; 15 mg/kg, 5 weeks): 19.0 ± 1.7 mg/dL | Plasma triglyceride concentration (C57BL/6JJcl mice; 15 mg/kg, 7 weeks): 18.8 ± 1.2 mg/dL | Plasma triglyceride concentration (C57BL/6JJcl mice; 45 mg/kg, 0 weeks): 63.6 ± 3.7 mg/dL | Plasma triglyceride concentration (C57BL/6JJcl mice; 45 mg/kg, 1 week): 22.4 ± 2.5 mg/dL | Plasma triglyceride concentration (C57BL/6JJcl mice; 45 mg/kg, 3 weeks): 18.9 ± 1.4 mg/dL | Plasma triglyceride concentration (C57BL/6JJcl mice; 45 mg/kg, 5 weeks): 16.5 ± 1.7 mg/dL | Plasma triglyceride concentration (C57BL/6JJcl mice; 45 mg/kg, 7 weeks): 15.1 ± 1.0 mg/dL | Remaining amount of compound, Rat [1]: 87% | IC50 (recombinant human ACC2): 6.6 nM | Remaining amount of compound, Human [2]: 95.4%
SMILES: CC(=O)N[C@@H](C)CCC1OCC(Oc2nc3c(F)c(OC4CC4)ccc3n2C)CO1 (stereo partly shown) [Compound I-13]
plasma triglyceride concentration versus vehicle-administered group (C57BL/6JJcl mice): lower than that in the vehicle-administered group | long-chain fatty acid metabolizing ability in myocardium (wash out rate) (Atgl knockout mice; 45 mg/kg/10 mL oral, p<0.05, Welch's t test): significant improving effect
